Among the data in patent publication US20260070887A1 (Shenzhen Zhongge Biological Technology Co., Ltd., priority 2022, published 2026) are IC50 values, retold here.

The target of one experiment is KIF18A (Homo sapiens (Human), UniProt Q8NI77). The experiment in a line: KIF18A ATPase activity under tubulin stimulation (ADP-Glo assay). Type of experiment: biochemical. To be noted: KIF18A 30 nM, ATP 150 μM, pig microtubules. Background: ADP-Glo first removes unused ATP, then detects ADP through luciferase.
Sequence of KIF18A (Q8NI77 whole entry): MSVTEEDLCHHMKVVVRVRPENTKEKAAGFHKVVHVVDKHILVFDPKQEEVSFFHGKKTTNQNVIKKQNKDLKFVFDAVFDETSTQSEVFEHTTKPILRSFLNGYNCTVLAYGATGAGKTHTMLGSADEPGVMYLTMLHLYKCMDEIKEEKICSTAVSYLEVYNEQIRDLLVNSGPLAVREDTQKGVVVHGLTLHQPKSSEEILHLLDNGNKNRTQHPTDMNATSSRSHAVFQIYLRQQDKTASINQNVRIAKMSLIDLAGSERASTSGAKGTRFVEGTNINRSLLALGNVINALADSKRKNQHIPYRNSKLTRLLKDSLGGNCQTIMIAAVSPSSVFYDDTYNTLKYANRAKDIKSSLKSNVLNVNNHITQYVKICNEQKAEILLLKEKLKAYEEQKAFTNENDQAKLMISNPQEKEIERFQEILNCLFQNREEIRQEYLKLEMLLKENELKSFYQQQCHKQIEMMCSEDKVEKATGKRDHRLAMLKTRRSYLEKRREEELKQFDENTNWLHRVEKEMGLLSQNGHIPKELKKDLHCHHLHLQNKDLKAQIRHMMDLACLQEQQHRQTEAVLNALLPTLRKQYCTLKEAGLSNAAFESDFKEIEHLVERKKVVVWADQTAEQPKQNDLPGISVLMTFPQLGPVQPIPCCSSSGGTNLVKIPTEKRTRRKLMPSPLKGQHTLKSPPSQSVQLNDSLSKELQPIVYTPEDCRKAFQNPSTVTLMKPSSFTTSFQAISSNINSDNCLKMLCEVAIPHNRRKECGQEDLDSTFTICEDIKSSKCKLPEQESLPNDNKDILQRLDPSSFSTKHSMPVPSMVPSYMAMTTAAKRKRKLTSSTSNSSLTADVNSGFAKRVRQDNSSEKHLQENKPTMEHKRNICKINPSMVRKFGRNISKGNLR
Sequence of KIF18A (P02550 whole entry partner): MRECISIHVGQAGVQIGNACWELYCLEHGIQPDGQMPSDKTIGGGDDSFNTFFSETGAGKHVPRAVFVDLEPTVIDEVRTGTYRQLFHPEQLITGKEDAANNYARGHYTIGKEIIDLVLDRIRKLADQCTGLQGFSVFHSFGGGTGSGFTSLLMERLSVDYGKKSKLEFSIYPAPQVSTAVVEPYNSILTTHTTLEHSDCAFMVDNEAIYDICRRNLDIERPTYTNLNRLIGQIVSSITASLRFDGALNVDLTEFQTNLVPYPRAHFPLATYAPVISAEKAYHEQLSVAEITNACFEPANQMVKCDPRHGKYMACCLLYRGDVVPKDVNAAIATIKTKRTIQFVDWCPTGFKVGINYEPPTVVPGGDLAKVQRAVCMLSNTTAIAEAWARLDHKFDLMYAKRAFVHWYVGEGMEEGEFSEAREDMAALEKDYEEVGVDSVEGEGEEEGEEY
Sequence of KIF18A (P02554 whole entry partner): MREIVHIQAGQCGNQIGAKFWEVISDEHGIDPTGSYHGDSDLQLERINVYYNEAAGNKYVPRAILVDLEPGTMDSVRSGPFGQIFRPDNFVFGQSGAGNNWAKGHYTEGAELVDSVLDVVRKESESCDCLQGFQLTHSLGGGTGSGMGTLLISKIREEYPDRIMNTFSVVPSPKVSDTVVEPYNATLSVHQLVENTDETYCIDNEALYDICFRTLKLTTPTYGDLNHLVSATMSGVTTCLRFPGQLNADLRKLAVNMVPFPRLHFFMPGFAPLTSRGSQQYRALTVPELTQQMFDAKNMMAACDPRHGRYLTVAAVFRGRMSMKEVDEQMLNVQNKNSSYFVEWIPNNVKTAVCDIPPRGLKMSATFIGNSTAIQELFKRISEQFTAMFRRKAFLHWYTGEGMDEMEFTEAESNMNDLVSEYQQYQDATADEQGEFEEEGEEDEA
Another experiment deals with OVCAR-3 cells. The experiment in a line: OVCAR-3 cell proliferation (Cell Titer-Glo, 10 days). Type of experiment: cell-based, human. In outline:
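IC50 was fitted by nonlinear regression of percent inhibition versus the 0.1% DMSO control. Luminescence was read with Cell Titer-Glo after 10 days of co-culture of logarithmic-phase cells (400/well) with compound at 0.12 nM–10 μM final, in medium with 20% fetal bovine serum and 0.01 mg/mL insulin.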

Another experiment has as its system HCC1954 cells. As to the kind of experiment: HCC1954 cell proliferation (Cell Titer-Glo, 6 days). Type of experiment: cell-based. To be noted: KIF18A-sensitive tumor cells. On the procedure: (§1) The inhibitory effect on the KIF18A target by the compounds of the present disclosure was evaluated by testing the inhibitory effect on proliferation of HCC1954 and HCC1395 cells by the compounds of the present disclosure.
(§2) HCC1954 (ATCC, CRL-2388) and HCC1395 (ATCC, CRL-2324) cells were cultured separately in RPMI-1640 complete medium (Gibco, A1049101) containing 20% fetal bovine serum (Gibco, 10099141C), 100 U penicillin, and 100 μg/mL streptomycin (Gibco, 15140-122). The Promega kit Cell Titer-Glo (Promega: G7572) was used in this method for test. • 1. HCC1954 (KIF18A-sensitive tumor cells) and HCC1395 (KIF18A-insensitive tumor cells) were cultured separately in T75 cell culture flasks (Corning, 430641), and the medium was placed in a 37° C., 5% CO2 incubator. • 2. When the cell density reached 70% to 80% (about 2 to 3 times per week), cells are passaged with trypsin (0.25% EDTA). • 3. The cell culture flask was taken out and the cells were separated by adding 2 mL of trypsin (0.25% EDTA source) for 5 minutes. • 4. Digestion was stopped by adding 8 mL of RPM1-1640 medium and the cell suspension was transferred to a centrifuge tube and centrifuged at 1000 rpm for 5 minutes. • 5. The cells were resuspended with 5 mL of RPMI-1640 medium. Cell density was adjusted to 5×10^3/mL (HCC1954), and 2.5×10^4/mL (HCC1395), respectively. • 6. 40 μL of cell solution was added to the 384-well plate (Corning, 3765). • 7. The 384-well plate was centrifuged at 1000 rpm for 1 minute. • 8. The cells were cultured overnight in a 37° C., 5% CO2 incubator. • 9. The next day, 40 nL of compound solution was added to the 384-well plate using Echo650. The plate was then placed in a 37° C., 5% CO2 incubator for 6 days. • 10. After 6 days, 20 μL of Cell-Titer-Glo (Promega, G7572) reagent was added per well. • 11. Luminescence values were measured using the EnVision Xcite Multilabel Reader (PerkinElmer, 2105-0020).
(§3) The percentage of inhibition of cell proliferation by the test compound at each concentration was calculated by comparing with the values of the control group (0.1% DMSO). The IC50 values of the compounds were obtained by concentration-inhibition rate nonlinear regression analysis of the test compounds using GraphPad Prism 9.
A general note: In ATP-based viability assays light output follows the ATP content of the culture.

Another experiment relates to HCC1395 cells. The experiment in a line: HCC1395 cell proliferation (Cell Titer-Glo, 6 days). The class given is cell-based. Conditions: KIF18A-insensitive tumor cells. As to the method: as §1, §2, §3

Like-named read-outs stand apart in the source and are kept apart here.

A word on the IC50: it is the midpoint of a concentration-inhibition curve.

In the case of `CN1CCn2c(cc3c(NC(=O)c4ccc(NS(=O)(=O)CCO)cc4N4CCC5(CC4)CC5)cccc32)C1` [Example 234, 4-(2-hydroxyethyl)sulfonamido-N-(2-methyl-1,2,3,4-tetrahydropyrazino[1,2-a]indol-9-yl)-2-(6-azaspiro[2.5]octan-6-yl)benzamide], the IC50 was 50 to 500 nM at KIF18A; 50 to 500 nM in the experiment with OVCAR-3 cells (Homo sapiens, OVCAR-3, 240 h); 10 to 500 nM in the experiment on HCC1954 cells (Homo sapiens, HCC1954, 144 h); > 5000 nM with HCC1395 cells (Homo sapiens, HCC1395, 144 h).

For `O=C(Nc1cccc2c1cc(Cl)n2CC1CC1)c1ccc(NS(=O)(=O)CCO)cc1N1CCC2(CC1)CC2` [Example 13, N-(2-chloro-1-(cyclopropylmethyl)-1H-indol-4-yl)-4-((2-hydroxyethyl)sulfonamide)-2-(6-azaspiro[2.5]octan-6-yl)benzamide], the IC50 at KIF18A was 50 to 500 nM; in the experiment on OVCAR-3 cells it was 50 to 500 nM; with HCC1954 cells, 10 to 500 nM; in the experiment with HCC1395 cells, > 5000 nM.

`CC1OCCn2c1cc1c(NC(=O)c3ccc(NS(=O)(=O)CCO)cc3N3CCC4(CC3)CC4)cccc12` (centres unmarked) [Example 311, 4-((2-hydroxyethyl)sulfonamido)-N-(1-methyl-3,4-dihydro-1H-[1,4]oxazinyl[4,3-a]indol-9-yl)-2-(6-azaspiro[2.5]oct-6-yl)benzamide]: the IC50 against KIF18A is ≤ 50 nM; in the experiment on OVCAR-3 cells, ≤ 50 nM; in the experiment with HCC1954 cells it was 10 to 500 nM; in the experiment on HCC1395 cells it was > 5000 nM.

Take `COC1c2cc3c(NC(=O)c4ccc(NS(=O)(=O)CCO)cc4N4CCC5(CC4)CC5)cccc3n2CCC1(F)F` (centres unmarked) [Example 340, N-(8,8-difluoro-9-methoxy-6,7,8,9-tetrahydropyridino[1,2-a]indol-1-yl)-4-((2-hydroxyethyl)sulfonamido)-2-(6-azaspiro[2.5]oct-6-yl)benzamide]: the IC50 at KIF18A is 50 to 500 nM; in the experiment on OVCAR-3 cells (Homo sapiens, OVCAR-3, 240 h) it was ≤ 50 nM; in the experiment with HCC1954 cells (Homo sapiens, HCC1954, 144 h), 10 to 500 nM; with HCC1395 cells (Homo sapiens, HCC1395, 144 h), > 5000 nM.

For the compound `O=C(Nc1cccc2c1ccn2CC1CC1)c1ccc(NS(=O)(=O)CCO)cc1N1CCC2(CC1)CC2` [Example 9, N-(1-(cyclopropylmethyl)-1H-indole-4-(2-hydroxyethyl)sulfonamido)-2-(6-azaspiro[2.5]octan-6-yl)benzamide], the IC50 on KIF18A is ≤ 50 nM; with OVCAR-3 cells, 50 to 500 nM; with HCC1954 cells, 10 to 500 nM; in the experiment on HCC1395 cells, > 5000 nM.

For `Cc1cc(NC(=O)c2c(N)cc(NS(=O)(=O)CCO)cc2N2CCC3(CC2)CC3)nc(N2CCC(F)(F)CC2)n1` [Example 3, 2-amino-N-(2-(4,4-difluoropiperidin-1-yl)-6-methylpyrimidin-4-yl)-4-(2-hydroxyethylsulfonamido)-6-(6-azaspiro[2.5]octan-6-yl)benzamide], the IC50 is 50 to 500 nM against KIF18A; ≤ 50 nM in the experiment on OVCAR-3 cells (Homo sapiens, OVCAR-3, 240 h); ≤ 10 nM with HCC1954 cells (Homo sapiens, HCC1954, 144 h); > 5000 nM in the experiment with HCC1395 cells (Homo sapiens, HCC1395, 144 h).

For the compound `O=C(Nc1cc(F)cc2c1ccn2CC1CC1)c1ccc(NS(=O)(=O)CCO)cc1N1CCC2(CC1)CC2` [Example 50], the IC50 against KIF18A is 50 to 500 nM; in the experiment with OVCAR-3 cells it was 50 to 500 nM; with HCC1954 cells, 10 to 500 nM; in the experiment with HCC1395 cells it was > 5000 nM.

With `O=C(Nc1cccc2c1nc1n2CCOC1)c1ccc(NS(=O)(=O)CCO)cc1N1CCC2(CC1)CC2` [Example 304, N-(3,4-dihydro-1H-benzo[4,5]imidazo[2,1-c][1,4]oxazin-9-yl)-4-((2-hydroxyethyl)sulfonamido)-2-(6-azaspiro[2.5]octan-6-yl)benzamide], the IC50 on KIF18A was ≤ 50 nM; with OVCAR-3 cells (Homo sapiens, OVCAR-3, 240 h), ≤ 50 nM; with HCC1954 cells (Homo sapiens, HCC1954, 144 h) it was 10 to 500 nM; in the experiment with HCC1395 cells (Homo sapiens, HCC1395, 144 h), > 5000 nM.

With `O=C(Nc1cccc2c1ncn2CC1CC1)c1ccc(NS(=O)(=O)CCO)cc1N1CCC2(CC1)CC2` [Example 16], the IC50 was ≤ 50 nM on KIF18A, 50 to 500 nM in the experiment with OVCAR-3 cells, 10 to 500 nM in the experiment with HCC1954 cells and > 5000 nM with HCC1395 cells.

Turning to `O=C(Nc1ccc(F)c2c1cc1n2CCOC1)c1ccc(NS(=O)(=O)CCO)cc1N1CCC2(CC1)CC2` [Example 305, N-(6-fluoro-3,4-dihydro-1H-[1,4]oxazino[4,3-a]indol-9-yl)-4-((2-hydroxyethyl)sulfonamido)-2-(6-azaspiro[2.5]oct-6-yl)benzamide], the IC50 against KIF18A is ≤ 50 nM; with OVCAR-3 cells (Homo sapiens, OVCAR-3, 240 h), 50 to 500 nM; in the experiment with HCC1954 cells (Homo sapiens, HCC1954, 144 h), 10 to 500 nM; in the experiment with HCC1395 cells (Homo sapiens, HCC1395, 144 h), > 5000 nM.

Regarding `O=C(Nc1cccc2c1cc1n2CCCC1)c1ccc(NS(=O)(=O)CCO)cc1N1CCC2(CC1)CC2` [Example 126, 4-((2-hydroxyethyl)sulfonamide)-2-(6-azaspiro[2.5]octan-6-yl)-N-(6,7,8,9-tetrahydropyridine[1,2-a]indole-1)benzamide], the IC50 against KIF18A is ≤ 50 nM; in the experiment on OVCAR-3 cells it was 50 to 500 nM; in the experiment on HCC1954 cells, 10 to 500 nM; in the experiment with HCC1395 cells, > 5000 nM.
